Assay results reported in ChEMBL document CHEMBL3046853, “Synthesis, antimicrobial evaluation, ot-QSAR and mt-QSAR studies of 2-amino benzoic acid derivatives” (2012).
Calls of active or inactive are those of the source. The rule behind the calls is not given here.

Columns and labels:
Aspergillus niger [1] = assay: Fungicidal activity against Aspergillus niger after 7 days by serial dilution technique; type: functional, organism-based
Candida albicans [2] = assay: Fungicidal activity against Candida albicans; type: functional, organism-based
Escherichia coli [3] = assay: Bactericidal activity against Escherichia coli; type: functional, organism-based
Bacillus subtilis [4] = assay: Bactericidal activity against Bacillus subtilis; type: functional, organism-based
Staphylococcus aureus [5] = assay: Bactericidal activity against Staphylococcus aureus; type: functional, organism-based
Candida albicans [6] = assay: Antifungal activity against Candida albicans after 2 days by serial dilution technique; type: functional
Aspergillus niger [7] = assay: Antifungal activity against Aspergillus niger after 7 days by serial dilution technique; type: functional
Escherichia coli [8] = assay: Antibacterial activity against Escherichia coli after 24 hr by serial dilution technique; type: functional
Bacillus subtilis [9] = assay: Antibacterial activity against Bacillus subtilis after 24 hr by serial dilution technique; type: functional
Staphylococcus aureus [10] = assay: Antibacterial activity against Staphylococcus aureus after 24 hr by serial dilution technique; type: functional

SMILES | Activity (Aspergillus niger [1]) | Activity (Candida albicans [2]) | Activity (Escherichia coli [3]) | Activity (Bacillus subtilis [4]) | Activity (Staphylococcus aureus [5]) | -logMIC (Candida albicans [6]) | -logMIC (Aspergillus niger [7]) | -logMIC (Escherichia coli [8]) | -logMIC (Bacillus subtilis [9]) | -logMIC (Staphylococcus aureus [10])
Nc1ccccc1C(=O)Nc1ccccc1 | Active | Active | Active | Active | Active | 1.23 | 1.23 | 1.23 | 2.13 | 1.23
CC(C)COC(=O)c1ccccc1N [ISOBUTYL 2-AMINOBENZOATE] | Active | Active | Active | Active | Active | 0.59 | 1.06 | 1.51 | 1.79 | 0.89
COc1ccc(NC(=O)c2ccccc2N)cc1 | Active | Active | Active | Active | Active | 1.29 | 1.29 | 1.29 | 2.19 | 1.29
COC(=O)c1ccccc1N [METHYL ANTHRANILATE] | Active | Active | Active | Active | Active | 1.08 | 1.08 | 1.69 | 1.99 | 1.08
CCCCCCOC(=O)c1ccccc1N [HEXYL 2-AMINOBENZOATE] | Active | Active | Active | Active | Active | 1.25 | 1.85 | 1.85 | 2.15 | 1.25
CN(C)C(=O)c1ccccc1N | Active | Active | Active | Active | Active | 0.82 | 1.42 | 1.42 | 2.02 | 0.82
CCCCN(CCCC)C(=O)c1ccccc1N | Active | Active | Active | Active | Active | 1.3 | 1.6 | 1.6 | 2.2 | 1.3
COc1ccccc1NC(=O)c1ccccc1N | Active | Active | Active | Active | Active | 1.29 | 1.29 | 1.2 | 1.59 | 1.29
Cc1ccc(C)c(NC(=O)c2ccccc2N)c1 | Active | Active | Active | Active | Active | 1.3 | 1.28 | 1.28 | 2.19 | 1.28
Cc1cccc(NC(=O)c2ccccc2N)c1 | Active | Active | Active | Active | Active | 1.26 | 1.26 | 1.26 | 2.16 | 1.26
Cc1ccc(NC(=O)c2ccccc2N)c(C)c1 | Active | Active | Active | Active | Active | 1.28 | 1.28 | 1.28 | 2.19 | 1.28
CCCCNC(=O)c1ccccc1N | Active | Active | Active | Active | Active | 1.19 | 1.2 | 1.19 | 1.49 | 1.2
OC(Cn1cncn1)(Cn1cncn1)c1ccc(F)cc1F [FLUCONAZOLE] |  |  |  |  |  | 2.64 | 2.64 |  |  | 
NC(=O)c1ccccc1N [ANTHRANILAMIDE] | Active | Active | Active | Active | Active | 1.04 | 1.64 | 1.04 | 1.94 | 1.04
Cc1ccc(NC(=O)c2ccccc2N)cc1 | Active | Active | Active | Active | Active | 1.26 | 1.26 | 1.56 | 2.16 | 1.26
Nc1ccccc1C(=O)Nc1ccccc1F | Active | Active | Active | Active | Active | 1.27 | 1.27 | 1.27 | 2.17 | 1.27
CC(C)CCOC(=O)c1ccccc1N [ISOPENTYL 2-AMINOBENZOATE] | Active | Active | Active | Active | Active | 1.22 | 1.22 | 1.82 | 2.12 | 1.22
CCCCOC(=O)c1ccccc1N [BUTYL 2-AMINOBENZOATE] | Active | Active | Active | Active | Active | 1.19 | 1.3 | 1.79 | 2.09 | 1.2
Cc1ccccc1NC(=O)c1ccccc1N | Active | Active | Active | Active | Active | 1.56 | 1.56 | 1.26 | 1.86 | 1.26
CCCNC(=O)c1ccccc1N | Active | Active | Active | Active | Active | 1.12 | 1.15 | 1.46 | 2.06 | 1.15
Nc1ccccc1C(=O)Oc1cccc2cccnc12 | Active | Active | Active | Active | Active | 1.63 | 1.63 | 1.8 | 1.93 | 1.93
CCCCCCCOC(=O)c1ccccc1N [HEPTYL 2-AMINOBENZOATE] | Active | Active | Active | Active | Active | 1.58 | 1.58 | 1.88 | 1.88 | 1.27
Nc1ccccc1C(=O)N1CCOCC1 [(2-AMINOPHENYL)(MORPHOLINO)METHANONE] | Active | Active | Active | Active | Active | 1.22 | 1.22 | 1.52 | 1.22 | 1.22
CCN(CC)C(=O)c1ccccc1N | Active | Active | Active | Active | Active | 1.19 | 1.49 | 1.19 | 2.09 | 1.19
CCn1cc(C(=O)O)c(=O)c2cc(F)c(N3CCNCC3)cc21 [NORFLOXACIN] |  |  |  |  |  |  |  | 3.33 | 3.33 | 3.33
Nc1ccccc1C(=O)Nc1cccc(Cl)c1 | Active | Active | Active | Active | Active | 1.3 | 1.3 | 1.6 | 2.2 | 1.3
Nc1ccccc1C(=O)Nc1ccc(F)c(Cl)c1 | Active | Active | Active | Active | Active | 1.33 | 1.02 | 1.33 | 2.23 | 1.33
CCOC(=O)c1ccccc1N [ETHYL ANTHRANILATE] | Active | Active | Active | Active | Active | 1.12 | 1.72 | 1.72 | 1.91 | 1.12
Nc1ccccc1C(=O)N(c1ccccc1)c1ccccc1 | Active | Active | Active | Active | Active | 1.36 | 1.66 | 1.66 | 2.27 | 1.36
